Source: the supplement of paper PMC13380429

Columns and labels:
Conditions in all cases: 72 h
Caco-2 [1] = assay: cell viability relative to DMSO; higher = less toxic
Calu-3 [2] = assay: as above
HepG2 [3] = assay: as above
U2OS [4] = assay: as above
Vero E6 [5] = assay: as above
Caco-2 [6] = assay: relative viability EC50 (midpoint between 100% and the lowest measured viability); higher = less toxic
Calu-3 [7] = assay: as above
HepG2 [8] = assay: as above
U2OS [9] = assay: as above
Vero E6 [10] = assay: as above
Caco-2 [11] = assay: drug sensitivity score (DSS) for viability; higher = more toxic; extreme values may be limits of the assay
Calu-3 [12] = assay: as above
HepG2 [13] = assay: as above
U2OS [14] = assay: as above
Vero E6 [15] = assay: as above

Row | Structure (SMILES) | cell viability (Caco-2 [1]; 1 nM) | cell viability (Caco-2 [1]; 10 nM) | cell viability (Caco-2 [1]; 100 nM) | cell viability (Caco-2 [1]; 1000 nM) | cell viability (Caco-2 [1]; 10000 nM) | cell viability (Calu-3 [2]; 1 nM) | cell viability (Calu-3 [2]; 10 nM) | cell viability (Calu-3 [2]; 100 nM) | cell viability (Calu-3 [2]; 1000 nM) | cell viability (Calu-3 [2]; 10000 nM) | cell viability (HepG2 [3]; 1 nM) | cell viability (HepG2 [3]; 10 nM) | cell viability (HepG2 [3]; 100 nM) | cell viability (HepG2 [3]; 1000 nM) | cell viability (HepG2 [3]; 10000 nM) | cell viability (U2OS [4]; 1 nM) | cell viability (U2OS [4]; 10 nM) | cell viability (U2OS [4]; 100 nM) | cell viability (U2OS [4]; 1000 nM) | cell viability (U2OS [4]; 10000 nM) | cell viability (Vero E6 [5]; 1 nM) | cell viability (Vero E6 [5]; 10 nM) | cell viability (Vero E6 [5]; 100 nM) | cell viability (Vero E6 [5]; 1000 nM) | cell viability (Vero E6 [5]; 10000 nM) | relative viability EC50 (Caco-2 [6]) | relative viability EC50 (Calu-3 [7]) | relative viability EC50 (HepG2 [8]) | relative viability EC50 (U2OS [9]) | relative viability EC50 (Vero E6 [10]) | drug sensitivity score (Caco-2 [11]) | drug sensitivity score (Calu-3 [12]) | drug sensitivity score (HepG2 [13]) | drug sensitivity score (U2OS [14]) | drug sensitivity score (Vero E6 [15])
1 | NCCCCCC(O)(P(=O)(O)O)P(=O)(O)O [neridronic-acid] | 108% | 95% | 88.9% | 107% | 76.5% | 90.2% | 83.3% | 92% | 93.9% | 106% | 100% | 110% | 111% | 97.9% | 86.2% | 99.9% | 95.9% | 98.8% | 92.8% | 108% | 91.5% | 95.8% | 92.8% | 94.2% | 96.8% | > 10 µM | > 10 µM | > 10 µM | > 10 µM | > 10 µM | 0.6 | 0 | 0.3 | 0 | 0
2 | COc1ccccc1N1CCN(CCN2C(=O)CC3(CCCC3)CC2=O)CC1 [BMY-7378] | 89% | 93.9% | 97.5% | 97.3% | 103% | 92.7% | 95.2% | 109% | 110% | 106% | 106% | 102% | 105% | 98.4% | 108% | 93.5% | 100% | 96.3% | 95.8% | 102% | 97.3% | 95.6% | 99.9% | 90.1% | 106% | > 10 µM | > 10 µM | > 10 µM | > 10 µM | > 10 µM | 0 | 0 | 0 | 0 | 0
3 | CCCc1c(OCCCOc2ccc(OCC(=O)O)cc2)ccc(C(C)=O)c1O | 97.2% | 90.6% | 88.8% | 95.7% | 103% | 101% | 94.8% | 93.6% | 101% | 107% | 102% | 106% | 107% | 104% | 92.8% | 94.3% | 98.6% | 93.4% | 96.5% | 102% | 107% | 99.5% | 106% | 102% | 94.2% | > 10 µM | > 10 µM | > 10 µM | > 10 µM | > 10 µM | 0 | 0 | 0 | 0 | 0
4 | Cc1cc(C)n(-c2cccc([C@H](CC(=O)O)CN3CC[C@@H](CCc4ccc5c(n4)NCCC5)C3)c2)n1 [integrin-antagonist-1] | 104% | 102% | 94.4% | 99% | 105% | 92.1% | 98% | 101% | 96.6% | 98.4% | 107% | 97.8% | 104% | 97.8% | 99.9% | 104% | 95.6% | 104% | 103% | 97.2% | 99.2% | 102% | 105% | 95% | 99.1% | > 10 µM | > 10 µM | > 10 µM | > 10 µM | > 10 µM | 0 | 0 | 0 | 0 | 0
5 | O=C1C[C@@H](c2ccc(O)cc2)Oc2cc(O)cc(O)c21 [naringenin] | 114% | 103% | 90.3% | 97.2% | 88.5% | 93.2% | 97.9% | 89.9% | 99.7% | 93.7% | 104% | 107% | 99.3% | 95.1% | 99.9% | 98.9% | 104% | 95.6% | 102% | 103% | 101% | 99.7% | 101% | 94% | 93.3% | > 10 µM | > 10 µM | > 10 µM | > 10 µM | > 10 µM | 0 | 0 | 0 | 0 | 0
6 | O=C(Nc1cnn2ccc(N3CCC[C@@H]3c3cc(F)ccc3F)nc12)N1CC[C@H](O)C1 [larotrectinib] | 93.9% | 92.8% | 85.3% | 101% | 86% | 96.8% | 106% | 94.9% | 94.7% | 112% | 98.1% | 108% | 103% | 105% | 103% | 97.2% | 105% | 97.9% | 98.1% | 99.6% | 97.9% | 94.3% | 101% | 105% | 93.6% | > 10 µM | > 10 µM | > 10 µM | > 10 µM | > 10 µM | 0 | 0 | 0 | 0 | 0
7 | O=C(O)CNC(=O)c1nc(Cl)c2ccccc2c1O [FG-2216] | 98.2% | 102% | 99.3% | 94.1% | 93.5% | 106% | 98.5% | 96.6% | 103% | 103% | 101% | 98% | 96.4% | 99.1% | 95.3% | 107% | 98% | 101% | 91.5% | 93.2% | 100% | 99.4% | 104% | 102% | 99.5% | > 10 µM | > 10 µM | > 10 µM | > 10 µM | > 10 µM | 0 | 0 | 0 | 0 | 0
